Our source for the inhibition values is patent US20110172217A1, “RING-FUSED MORPHOLINE DERIVATIVE HAVING PI3K-INHIBITING ACTIVITY” (Shionogi & Co., Ltd., priority 2008, published 2011).

Where only a bound is given, the exact number is not on record here.

This assay concerns the target PI-3 kinase γ (Homo sapiens, UniProt P48736). Nature of the assay: PI3Kγ inhibitory activity, PI3-kinase HTRF assay (inhibition ratio). Format: biochemical. To be noted: 0.5 h, compound at 50 μmol/L. How it is done:
For each compound synthesized in the above Examples, PI3Kγ inhibitory activity was measured.
The PI3Kγ inhibitory activity of a compound was evaluated using PI3-kinase HTRF™ assay (Millipore) according to the following procedure:
To each well of a testing plate, 5 μL of a compound solution containing 10% DMSO (200 μmol/L or 40 μmol/L as the concentration of the compound), 5 μL of a substrate solution (40 μmol/L phosphatidylinositol (4,5)-bisphosphate, 20 mmol/L MgCl2, 10 mmol/L DTT), and 5 μL of a enzyme solution (80 μg/mL PI-3 kinase γ, 10 mmol/L MgCl2, 5 mmol/L DTT) were added, and then allowed to stand for 10 minutes.
Then, 5 μL of a reaction solution (40 μmol/L ATP, 10 mmol/L MgCl2, 5 mmol/L DTT) was added thereto. After reacting for 30 minutes at room temperature, 5 μL of a solution containing EDTA and biotinylated phosphatidylinositol (3,4,5)-triphosphate were added to quench the reaction.
5 μL of a detection reagent containing a europium-labeled anti-GST antibody, the GST-tagged PH domain, and allophycocyanin-labeled streptavidin was added thereto. After 18 hours, HTRF (excitation wavelength: 330 nm, measured wavelengths: 620 nm and 665 nm) was measured.
HTRF ratio was defined as the value obtained by dividing the amount of fluorescence obtained at the measured wavelength 665 nm by the amount of fluorescence obtained at 620 nm. The HTRF ratio in the absence of a compound was defined as 100% activity and the HTRF ratio in the absence of PI-3 kinase γ was defined as 0% activity to calculate an inhibition ratio which was defined as the PI3Kγ inhibitory activity of a compound at 50 μmol/L or 10 μmol/L.

Chain of PI-3 kinase γ (P48736 whole entry): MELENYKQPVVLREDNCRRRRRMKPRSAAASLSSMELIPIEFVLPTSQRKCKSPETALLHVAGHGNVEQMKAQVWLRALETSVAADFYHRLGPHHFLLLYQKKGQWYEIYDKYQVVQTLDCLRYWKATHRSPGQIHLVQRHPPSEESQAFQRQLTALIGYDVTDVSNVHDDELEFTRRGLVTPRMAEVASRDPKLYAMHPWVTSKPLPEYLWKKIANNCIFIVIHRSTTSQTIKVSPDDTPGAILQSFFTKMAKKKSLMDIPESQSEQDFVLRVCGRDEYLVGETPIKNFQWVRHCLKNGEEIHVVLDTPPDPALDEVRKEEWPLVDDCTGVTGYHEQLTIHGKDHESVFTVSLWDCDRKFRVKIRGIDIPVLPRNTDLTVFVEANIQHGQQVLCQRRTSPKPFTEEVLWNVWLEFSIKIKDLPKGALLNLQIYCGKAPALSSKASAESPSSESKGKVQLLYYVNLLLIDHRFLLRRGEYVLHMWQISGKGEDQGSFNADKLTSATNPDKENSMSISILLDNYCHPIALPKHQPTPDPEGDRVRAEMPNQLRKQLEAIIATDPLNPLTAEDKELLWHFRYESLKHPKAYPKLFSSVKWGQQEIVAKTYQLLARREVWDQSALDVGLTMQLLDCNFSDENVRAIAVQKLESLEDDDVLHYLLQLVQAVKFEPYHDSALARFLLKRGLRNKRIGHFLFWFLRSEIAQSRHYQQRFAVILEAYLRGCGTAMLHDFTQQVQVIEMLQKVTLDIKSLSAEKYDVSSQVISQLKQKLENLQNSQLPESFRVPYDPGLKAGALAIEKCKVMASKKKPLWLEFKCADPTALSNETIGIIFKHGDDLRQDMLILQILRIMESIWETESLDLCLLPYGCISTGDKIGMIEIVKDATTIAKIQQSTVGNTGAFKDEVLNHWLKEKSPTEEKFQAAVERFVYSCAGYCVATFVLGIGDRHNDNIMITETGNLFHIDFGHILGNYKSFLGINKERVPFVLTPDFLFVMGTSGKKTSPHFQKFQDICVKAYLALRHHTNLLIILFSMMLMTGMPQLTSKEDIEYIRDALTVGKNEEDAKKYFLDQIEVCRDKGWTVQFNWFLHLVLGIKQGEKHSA

On to `Cn1cc(-c2ccc3c(n2)N(C(=O)Nc2ccccc2)CCO3)cn1` [Compound I-190], for which the inhibition at 50 µM is at least 95%.

Turning to `CCOC(=O)N1CCC(NC(=O)N2CCOc3ccc(-c4ccc(C(=O)O)cc4)nc32)CC1` [Compound I-203], the inhibition at 50 µM was at least 95%.

As for `O=C(O)c1ccc(-c2ccc3c(n2)N(C(=O)NCCO)CCO3)cc1` [Compound I-205], the inhibition at 50 µM is at least 95%.

On to `O=C(Nc1ccccc1)N1CCOc2ccc(N3CCOCC3)nc21` [Compound I-207], for which the inhibition at 50 µM was found to be 81%.

As for `O=C(O)c1ccc(-c2ccc3c(n2)N(C(=O)Nc2ccncc2)CCO3)cc1` [Compound I-209], the inhibition at 50 µM is 90%.

As for `COc1ccc(NC(=O)N2CCOc3ccc(Nc4ccc(C(=O)O)cc4)nc32)cc1OC` [Compound I-210], the inhibition at 50 µM was at least 95%.

In the case of `COc1cccc(NC(=O)N2CCOc3ccc(Nc4ccc(C(=O)O)cc4)nc32)c1` [Compound I-211], the inhibition at 50 µM is at least 95%.

Take `CCOC(=O)Cc1ccc(Nc2ccc3c(n2)N(C(=O)Nc2ccccc2)CCO3)cc1` [Compound I-212]: the inhibition at 50 µM is at least 95%.

`CC(C)(C)OC(=O)COc1ccc(Nc2ccc3c(n2)N(C(=O)Nc2ccccc2)CCO3)cc1` [Compound I-213]: the inhibition at 50 µM is at least 95%.

`CC(C)(C)OC(=O)NCCOc1ccc(Nc2ccc3c(n2)N(C(=O)Nc2ccccc2)CCO3)cc1` [Compound I-214]: the inhibition at 50 µM was at least 95%.

Take `CC(C)(C)OC(=O)NCCOc1ccccc1Nc1ccc2c(n1)N(C(=O)Nc1ccccc1)CCO2` [Compound I-215]: the inhibition at 50 µM is at least 95%.

Take `COC(=O)c1ccc(Nc2ccc3c(n2)N(C(=O)Nc2ccccc2)CCO3)c(OCCNC(=O)OC(C)(C)C)c1` [Compound I-216]: the inhibition at 50 µM is at least 95%.

Regarding `COC(=O)c1ccc(O)c(Nc2ccc3c(n2)N(C(=O)Nc2ccccc2)CCO3)c1` [Compound I-217], the inhibition at 50 µM is 77%.

Regarding `COCOc1ccc(C(=O)O)cc1NC(=O)c1ccc2c(n1)N(C(=O)Nc1ccccc1)CCO2` [Compound I-218], the inhibition at 50 µM is 87%.

Consider `CC(C)(C)OC(=O)NCCOc1cccc(Nc2ccc3c(n2)N(C(=O)Nc2ccccc2)CCO3)c1` [Compound I-219], for which the inhibition at 50 µM is at least 95%.

Consider `O=C(O)C1CCN(c2ccc3c(n2)N(C(=O)Nc2ccccc2)CCO3)CC1` [Compound I-220], for which the inhibition at 50 µM was at least 95%.

In the case of `NCCOc1ccc(Nc2ccc3c(n2)N(C(=O)Nc2ccccc2)CCO3)cc1` [Compound I-221], the inhibition at 50 µM was at least 95%.

On to `NCCOc1cccc(Nc2ccc3c(n2)N(C(=O)Nc2ccccc2)CCO3)c1` [Compound I-222], for which the inhibition at 50 µM is at least 95%.

In the case of `NCCOc1ccccc1Nc1ccc2c(n1)N(C(=O)Nc1ccccc1)CCO2` [Compound I-223], the inhibition at 50 µM was at least 95%.

With `O=C(O)COc1ccc(Nc2ccc3c(n2)N(C(=O)Nc2ccccc2)CCO3)cc1` [Compound I-224], the inhibition at 50 µM was at least 95%.

`O=C(O)Cc1ccc(Nc2ccc3c(n2)N(C(=O)Nc2ccccc2)CCO3)cc1` [Compound I-225]: the inhibition at 50 µM is at least 95%.

As for `CC(C)(C)OC(=O)NCCOc1cc(C(=O)O)ccc1Nc1ccc2c(n1)N(C(=O)Nc1ccccc1)CCO2` [Compound I-226], the inhibition at 50 µM is at least 95%.

As for `NCCOc1cc(C(=O)O)ccc1Nc1ccc2c(n1)N(C(=O)Nc1ccccc1)CCO2` [Compound I-227], the inhibition at 50 µM is at least 95%.

As to `COC(=O)c1ccc(Nc2ccc3c(n2)N(C(=O)Nc2ccccc2)CCO3)cc1` [Compound I-229], the inhibition at 50 µM is at least 95%.

For `Cc1cc(C(=O)O)ccc1-c1ccc2c(n1)N(C(=O)Nc1ccccc1)CCO2` [Compound I-230], the inhibition at 50 µM was at least 95%.

As for `CC(C)(C)OC(=O)N1CCC(Nc2ccc3c(n2)N(C(=O)Nc2ccccc2)CCO3)CC1` [Compound I-231], the inhibition at 50 µM was at least 95%.

With `COC(=O)c1cccc(Nc2ccc3c(n2)N(C(=O)Nc2ccccc2)CCO3)c1` [Compound I-232], the inhibition at 50 µM was at least 95%.

Regarding `CC(C)(C)OC(=O)COc1cccc(Nc2ccc3c(n2)N(C(=O)Nc2ccccc2)CCO3)c1` [Compound I-233], the inhibition at 50 µM was at least 95%.

Regarding `CC(C)(C)OC(=O)COc1cccc(Nc2cnc3c(c2)OCCN3C(=O)Nc2ccccc2)c1` [Compound I-234], the inhibition at 50 µM is at least 95%.

Consider `CC(C)(C)OC(=O)COc1ccc(Nc2cnc3c(c2)OCCN3C(=O)Nc2ccccc2)cc1` [Compound I-237], for which the inhibition at 50 µM was at least 95%.

As to `CCOC(=O)CNC(=O)Nc1cnc2c(c1)OCCN2C(=O)Nc1ccccc1` [Compound I-238], the inhibition at 50 µM was determined as 83%.

Turning to `O=C(O)COc1cccc(Nc2cnc3c(c2)OCCN3C(=O)Nc2ccccc2)c1` [Compound I-241], the inhibition at 50 µM is at least 95%.

Turning to `CC(C)(C)OC(=O)COc1ccccc1Nc1ccc2c(n1)N(C(=O)Nc1ccccc1)CCO2` [Compound I-242], the inhibition at 50 µM was at least 95%.

In the case of `COC(=O)c1ccc(N(C)c2cnc3c(c2)OCCN3C(=O)Nc2ccccc2)cc1` [Compound I-243], the inhibition at 50 µM was found to be 77%.

On to `CC(C)(C)OC(=O)N1CCN(c2cnc3c(c2)OCCN3C(=O)Nc2ccccc2)CC1` [Compound I-244], for which the inhibition at 50 µM stood at 80%.

Take `CC(C)(C)OC(=O)N1CCN(c2cnc3c(c2)OCCN3C(=O)Nc2ccccc2)CC1C(=O)O` (centres unmarked) [Compound I-245]: the inhibition at 50 µM is at least 95%.

`O=C(Nc1ccccc1)N1CCOc2cc(N3CCNCC3)cnc21` [Compound I-246]: the inhibition at 50 µM was at least 95%.

Turning to `COC(=O)c1cncc(-c2ccc3c(n2)N(C(=O)Nc2ccccc2)CCO3)c1` [Compound I-249], the inhibition at 50 µM was at least 95%.

Take `O=C(Nc1ccccc1)N1CCOc2cc(-c3ccnn3C3CCCCO3)cnc21` (centres unmarked) [Compound I-250]: the inhibition at 50 µM turned out to be 91%.

Turning to `O=C(Nc1ccccc1)N1CCOc2cc(-c3cn[nH]c3)cnc21` [Compound I-251], the inhibition at 50 µM was at least 95%.

As for `O=C(O)COc1ccc(Nc2cnc3c(c2)OCCN3C(=O)Nc2ccccc2)cc1` [Compound I-252], the inhibition at 50 µM was at least 95%.

With `O=C(O)c1ccc(-c2ccc3c(n2)OCCN3C(=O)Nc2ccccc2C(=O)O)cc1` [Compound I-259], the inhibition at 50 µM was at least 95%.

Take `COc1cccc(NC(=O)N2CCOc3nc(-c4ccc(C(=O)O)cc4)ccc32)c1` [Compound I-265]: the inhibition at 50 µM is 75%.

As for `O=C(Nc1ccccc1)N1CCOc2cc(-c3cc[nH]n3)cnc21` [Compound I-269], the inhibition at 50 µM was found to be 71%.

In the case of `O=C(Nc1cccnc1)N1CCOc2cc(Nc3ccccc3)cnc21` [Compound I-271], the inhibition at 50 µM is at least 95%.

As to `CC(C)(C)OC(=O)CNC(=O)c1cccc(Nc2ccc3c(n2)N(C(=O)Nc2ccccc2)CCO3)c1` [Compound I-272], the inhibition at 50 µM was at least 95%.

With `CC(C)(C)OC(=O)CNC(=O)c1ccc(Nc2ccc3c(n2)N(C(=O)Nc2ccccc2)CCO3)cc1` [Compound I-273], the inhibition at 50 µM came to 76%.

With `O=C(Nc1ccccc1)N1CCOc2cc(-c3ccc[nH]3)cnc21` [Compound I-274], the inhibition at 50 µM was at least 95%.

With `O=C(O)CNC(=O)c1cccc(Nc2ccc3c(n2)N(C(=O)Nc2ccccc2)CCO3)c1` [Compound I-277], the inhibition at 50 µM was at least 95%.

As for `O=C(O)CNC(=O)c1ccc(Nc2ccc3c(n2)N(C(=O)Nc2ccccc2)CCO3)cc1` [Compound I-278], the inhibition at 50 µM was at least 95%.

Regarding `O=C(O)Cn1cc(-c2cnc3c(c2)OCCN3C(=O)Nc2ccccc2)cn1` [Compound I-280], the inhibition at 50 µM was 88%.

With `O=C(Nc1ccccc1)N1CCOc2cc(-c3cc4ccccc4[nH]3)cnc21` [Compound I-282], the inhibition at 50 µM is 74%.

Take `CC(C)(C)OC(=O)n1c(-c2cnc3c(c2)OCCN3C(=O)Nc2ccccc2)cc2ccccc21` [Compound I-283]: the inhibition at 50 µM worked out at 85%.

With `CN(c1ccc(C(=O)O)cc1)c1ccc2c(n1)N(C(=O)Nc1ccccc1)CCO2` [Compound I-284], the inhibition at 50 µM turned out to be 82%.

For `O=C(O)c1ccc(-c2cnc3c(c2)OCCN3C(=O)Nc2ccccc2)s1` [Compound I-285], the inhibition at 50 µM was determined as 88%.

`CC1CN(C(=O)Nc2ccccc2)c2nc(-c3ccc(C(=O)O)cc3)ccc2O1` (centres unmarked) [Compound I-290]: the inhibition at 50 µM amounted to 86%.

Turning to `O=C(Nc1ccccc1)N1CCOc2cc(-c3cnn(CCN4CCOCC4)c3)cnc21` [Compound I-293], the inhibition at 50 µM is at least 95%.

As to `COc1ccc2cc(-c3cnc4c(c3)OCCN4C(=O)Nc3ccccc3)[nH]c2c1` [Compound I-302], the inhibition at 50 µM is 87%.

Consider `CNC(=O)c1cnc2c(c1)OCCN2C(=O)Nc1ccccc1` [Compound I-303], for which the inhibition at 50 µM amounted to 89%.

With `CC(C)(C)OC(=O)CCNC(=O)c1cnc2c(c1)OCCN2C(=O)Nc1ccccc1` [Compound I-305], the inhibition at 50 µM was 84%.

For the compound `O=C(O)CCNC(=O)c1cnc2c(c1)OCCN2C(=O)Nc1ccccc1` [Compound I-307], the inhibition at 50 µM was determined as 92%.

In the case of `O=C(Nc1ccccc1)N1CCOc2cc(Nc3ccc(F)cc3Cl)cnc21` [Compound I-309], the inhibition at 50 µM is 90%.

Usually inhibition stands for the relative decrease from the control value, in per cent.
